Results from PMC4266366 (Medical Science Monitor : International Medical Journal of …, 2014).

System: BACE expression in transfected INR-32 human neuroblastoma cells
Assay: Selection of BACE1 siRNAs: inhibition of BACE expression in transfected cells
Type: cell-based
Conditions: BACE1 siRNA (75 pmoles) with Oligofectamin reagent

siRNA A5 3: siRNA A5 3 - 3′GCAAGGAGUACAACUAUGAUU 5′, 3′GGAGGGAGCAUGAUCAUUGUU5′ (chemistry not given here)
inhibition of BACE expression: 86.5%
